Measurements published in patent US10174035B2, “6-morpholinyl-2-pyrazolyl-9H-purine derivatives and their use as PI3K inhibitors” (Daiichi Sankyo Company, Limited, priority 2015, dated 2019).

Biological target: recombinant PI3K δ enzyme (Homo sapiens (Human), UniProt O00329)
Assay: In vitro enzyme assay (Kinase-Glo luminescent kinase assay), PI3Kδ
Format: biochemical
Protocol: The Kinase-Glo luminescent kinase assay kit (from Promega) was used to measure kinase activity. In this assay, amount of ATP remaining in solution following a kinase reaction is measured. The effect of compounds on PI3Kδ inhibition was carried out by adding 2.29 μg/ml of recombinant PI3K δ enzyme (Proteros, Germany) to reaction mixture containing assay buffer (50 mM HEPES, pH 7.4, 50 mM NaCl, 0.05% CHAPS) supplemented with 10 mM MgCl2, 5 mM DTT, 60 μM Phosphatidyl inositol bisphosphate (PIP2) and 10 μM ATP in the absence or presence of different concentrations of the compounds in a final volume of 15 μl/well, in a 384 well plate. The reaction mixture was incubated for 2 hours at room temperature. At the end of incubation period the equal volume of Kinase-Glo plus (Promega, V3772), was added per well and the luminescence was measured after incubating for 10 minutes at room temperature in dark. Results were calculated by measuring the luminescence units of test samples to blanks containing no enzyme.
The compounds of the present invention were tested for their selectivity for PI3Kδ over PI3Kα, PI3Kβ and PI3Kγ following the above assay using specific recombinant enzymes (Proteros, Germany) for each kinase. Assay condition of kinase assay (PI3Kα, PI3Kβ, PI3Kγ and PI3Kδ) was as follows. Enzyme: 2.29 μg/mL; ATP: 10 μM; PIP2 substrate: 60 μM and Reaction Time: 2 hours.

recombinant PI3K δ enzyme, sequence (O00329 whole entry, species assumed): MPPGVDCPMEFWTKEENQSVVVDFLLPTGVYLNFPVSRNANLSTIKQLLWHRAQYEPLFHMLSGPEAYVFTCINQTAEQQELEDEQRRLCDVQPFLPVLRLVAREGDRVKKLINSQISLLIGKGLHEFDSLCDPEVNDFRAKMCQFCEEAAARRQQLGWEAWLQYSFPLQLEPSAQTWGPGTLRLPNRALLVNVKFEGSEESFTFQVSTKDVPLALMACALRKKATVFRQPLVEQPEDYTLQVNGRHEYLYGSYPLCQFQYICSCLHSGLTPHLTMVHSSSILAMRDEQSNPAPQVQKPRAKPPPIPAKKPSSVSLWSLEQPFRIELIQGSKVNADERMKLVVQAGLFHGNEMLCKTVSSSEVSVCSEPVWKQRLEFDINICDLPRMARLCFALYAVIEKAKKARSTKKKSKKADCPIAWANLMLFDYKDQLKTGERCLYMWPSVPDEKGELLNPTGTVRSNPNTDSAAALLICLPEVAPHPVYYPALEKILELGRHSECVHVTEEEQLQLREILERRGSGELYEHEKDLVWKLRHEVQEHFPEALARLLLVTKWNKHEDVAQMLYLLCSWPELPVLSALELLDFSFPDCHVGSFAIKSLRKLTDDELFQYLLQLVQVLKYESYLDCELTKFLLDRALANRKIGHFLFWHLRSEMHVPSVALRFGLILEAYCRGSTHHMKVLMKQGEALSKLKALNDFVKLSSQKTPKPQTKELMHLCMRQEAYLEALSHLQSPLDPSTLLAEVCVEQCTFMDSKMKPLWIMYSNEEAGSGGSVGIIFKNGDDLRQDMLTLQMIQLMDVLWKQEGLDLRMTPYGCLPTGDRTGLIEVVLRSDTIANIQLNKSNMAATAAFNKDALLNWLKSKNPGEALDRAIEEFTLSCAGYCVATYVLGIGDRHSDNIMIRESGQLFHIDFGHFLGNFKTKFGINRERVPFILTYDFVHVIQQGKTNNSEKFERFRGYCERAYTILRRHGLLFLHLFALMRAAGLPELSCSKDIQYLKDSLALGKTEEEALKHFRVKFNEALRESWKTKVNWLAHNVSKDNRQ
recombinant PI3K δ enzyme, sequence (P27986 whole entry partner, species assumed): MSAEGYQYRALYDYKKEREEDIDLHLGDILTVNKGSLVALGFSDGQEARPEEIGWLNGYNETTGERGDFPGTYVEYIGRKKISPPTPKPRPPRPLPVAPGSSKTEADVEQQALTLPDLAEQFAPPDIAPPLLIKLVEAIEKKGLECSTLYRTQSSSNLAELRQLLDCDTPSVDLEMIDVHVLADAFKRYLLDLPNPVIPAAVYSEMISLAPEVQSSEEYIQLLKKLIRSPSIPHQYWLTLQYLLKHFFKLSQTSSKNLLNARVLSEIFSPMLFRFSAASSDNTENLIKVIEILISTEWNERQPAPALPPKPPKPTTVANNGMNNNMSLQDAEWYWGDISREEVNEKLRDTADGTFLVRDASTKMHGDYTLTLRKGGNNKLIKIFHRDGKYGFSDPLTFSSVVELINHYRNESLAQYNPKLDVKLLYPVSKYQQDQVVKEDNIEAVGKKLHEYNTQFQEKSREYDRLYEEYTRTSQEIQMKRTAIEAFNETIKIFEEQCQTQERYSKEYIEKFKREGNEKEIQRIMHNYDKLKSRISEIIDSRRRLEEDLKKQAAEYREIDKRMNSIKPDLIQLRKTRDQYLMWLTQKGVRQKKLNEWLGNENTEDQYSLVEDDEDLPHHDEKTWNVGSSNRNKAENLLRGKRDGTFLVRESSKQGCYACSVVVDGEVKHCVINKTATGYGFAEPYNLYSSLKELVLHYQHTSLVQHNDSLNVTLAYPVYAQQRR

| IC50 [nM] | Structure (SMILES) |
| --- | --- |
| 26 | Cc1nn(C)c(C)c1-c1nc2[nH]c(C(=O)N3CCC(N4CCOCC4)CC3)nc2c(N2CCOCC2)c1F [Compound No. 93] |
| 5 | C[C@@H]1CN(C2CN(C(=O)c3nc4c(N5CCOCC5)cc(-c5cnn(C)c5)nc4[nH]3)C2)C[C@H](C)O1 [Compound No. 119, {3-[(2R,6S)-2,6-dimethylmorpholin-4-yl]azetidin-1-yl}[5-(1-methyl-1H-pyrazol-4-yl)-7-(morpholin-4-yl)-3H-imidazo[4,5-b]pyridin-2-yl]methanone] |
| 52 | CN(C(=O)c1nc2c(N3CCOCC3)cc(-c3cnn(C)c3)nc2[nH]1)C1CCN(C2CCOCC2)CC1 [Compound No. 121, N-Methyl-5-(1-methyl-1H-pyrazol-4-yl)-7-(morpholin-4-yl)-N-[1-(tetrahydro-2H-pyran-4-yl)piperidin-4-yl]-3H-imidazo[4,5-b]pyridine-2-carboxamide] |
| 19 | Cn1cc(-c2cc(N3CCOCC3)c3nc(C(=O)N4CC(N5CCNC(=O)C5)C4)[nH]c3n2)cn1 [Compound No. 128, 4-(1-{[5-(1-Methyl-1H-pyrazol-4-yl)-7-(morpholin-4-yl)-3H-imidazo[4,5-b]pyridin-2-yl]carbonyl}azetidin-3-yl)piperazin-2-one] |
| 10 | CN1CCN(C2CN(C(=O)c3nc4c(N5CCOCC5)cc(-c5cnn(C)c5)nc4[nH]3)C2)CC1=O [Compound No. 129, 1-Methyl-4-(1-{[5-(1-methyl-1H-pyrazol-4-yl)-7-(morpholin-4-yl)-3H-imidazo[4,5-b]pyridin-2-yl]carbonyl}azetidin-3-yl)piperazin-2-one] |
| 10 | CN1CCN(C2CN(C(=O)c3nc4c(N5CCOCC5)nc(-c5cnn(C)c5)nc4[nH]3)C2)CC1=O [Compound No. 130, 1-Methyl-4-(1-{[2-(1-methyl-1H-pyrazol-4-yl)-6-(morpholin-4-yl)-9H-purin-8-yl]carbonyl}azetidin-3-yl)piperazin-2-one] |
| 146 | CN(C(=O)c1nc2c(N3CCOCC3)cc(-c3cnn(C)c3)nc2[nH]1)C1CCN(C2COC2)CC1 [Compound No. 131, N-Methyl-5-(1-methyl-1H-pyrazol-4-yl)-7-(morpholin-4-yl)-N-[1-(oxetan-3-yl)piperidin-4-yl]-3H-imidazo[4,5-b]pyridine-2-carboxamide] |
| 61 | Cn1cc(-c2nc(N3CCOCC3)c3nc(C(=O)NCCc4cccnc4)[nH]c3n2)cn1 [compound 1, 2-(1-Methyl-1H-pyrazol-4-yl)-6-(morpholin-4-yl)-N-[2-(pyridin-3-yl)ethyl]-9H-purine-8-carboxamide] |
| 48 | Cn1cc(-c2nc(N3CCOCC3)c3nc(C(=O)NCCN4CCOCC4)[nH]c3n2)cn1 [compound 2, 2-(1-Methyl-1H-pyrazol-4-yl)-6-(morpholin-4-yl)-N-[2-(morpholin-4-yl)ethyl]-9H-purine-8-carboxamide] |
| 27 | Cn1cc(-c2nc(N3CCOCC3)c3nc(C(=O)N4CC(O)C4)[nH]c3n2)cn1 [compound 4, (3-Hydroxyazetidin-1-yl)[2-(1-methyl-1H-pyrazol-4-yl)-6-(morpholin-4-yl)-9H-purin-8-yl]methanone] |
| 36 | Cn1cc(-c2nc(N3CCOCC3)c3nc(C(=O)N4CCN5C(=O)COC[C@H]5C4)[nH]c3n2)cn1 [compound 6, (9aR)-8-{[2-(1-Methyl-1H-pyrazol-4-yl)-6-(morpholin-4-yl)-9H-purin-8-yl]carbonyl}hexahydropyrazino[2,1-c][1,4]oxazin-4(3H)-one] |
| 42 | Cn1cc(-c2nc(N3CCOCC3)c3nc(C(=O)N4CCC(N5CCOCC5=O)CC4)[nH]c3n2)cn1 [compound 7, 4-(1-{[2-(1-Methyl-1H-pyrazol-4-yl)-6-(morpholin-4-yl)-9H-purin-8-yl]carbonyl}piperidin-4-yl)morpholin-3-one] |
| 9 | Cc1nn(C)cc1-c1nc(N2CCOCC2)c2nc(C(=O)N3CCN(C4CCOCC4)CC3)[nH]c2n1 [compound 9, [2-(1,3-Dimethyl-1H-pyrazol-4-yl)-6-(morpholin-4-yl)-9H-purin-8-yl][4-(tetrahydro-2H-pyran-4-yl)piperazin-1-yl]methanone] |
| 26 | Cn1cc(-c2nc(N3CCOCC3)c3nc(C(=O)N4CCN(C5CCOCC5)CC4)[nH]c3n2)cn1 [compound 11, [2-(1-Methyl-1H-pyrazol-4-yl)-6-(morpholin-4-yl)-9H-purin-8-yl][4-(tetrahydro-2H-pyran-4-yl)piperazin-1-yl]methanone] |
| 34 | Cc1nn(C)cc1-c1nc(N2CCOCC2)c2nc(C(=O)N3CCC(C(C)(C)O)CC3)[nH]c2n1 [compound 12, [2-(1,3-Dimethyl-1H-pyrazol-4-yl)-6-(morpholin-4-yl)-9H-purin-8-yl][4-(2-hydroxypropan-2-yl)piperidin-1-yl]methanone] |
| 88 | Cn1cc(-c2nc(N3CCOCC3)c3nc(C(=O)N4CCC[C@H](N5CCOCC5)C4)[nH]c3n2)cn1 [compound 13, [2-(1-Methyl-1H-pyrazol-4-yl)-6-(morpholin-4-yl)-9H-purin-8-yl][(3S)-3-(morpholin-4-yl)piperidin-1-yl]methanone] |
| 123 | Cn1cc(-c2nc(N3CCOCC3)c3nc(C(=O)N4CCS(=O)(=O)CC4)[nH]c3n2)cn1 [compound 15, (1,1-Dioxidothiomorpholin-4-yl)[2-(1-methyl-1H-pyrazol-4-yl)-6-(morpholin-4-yl)-9H-purin-8-yl]methanone] |
| 88 | Cc1n[nH]c(C)c1-c1nc(N2CCOCC2)c2nc(C(=O)N3CCC(N4CCOCC4)CC3)[nH]c2n1 [compound 16, [2-(3,5-Dimethyl-1H-pyrazol-4-yl)-6-(morpholin-4-yl)-9H-purin-8-yl][4-(morpholin-4-yl)piperidin-1-yl]methanone] |
| 12 | Cn1cc(-c2nc(N3CCOCC3)c3nc(C(=O)N4CCC(N5CCOCC5)CC4)[nH]c3n2)c(C(F)(F)F)n1 [compound 17, {2-[1-Methyl-3-(trifluoromethyl)-1H-pyrazol-4-yl]-6-(morpholin-4-yl)-9H-purin-8-yl}[4-(morpholin-4-yl)piperidin-1-yl]methanone] |
| 230 | CC(C)n1cc(-c2nc(N3CCOCC3)c3nc(C(=O)N4CCC(N5CCOCC5)CC4)[nH]c3n2)cn1 [compound 18, [4-(Morpholin-4-yl)piperidin-1-yl]{6-(morpholin-4-yl)-2-[1-(propan-2-yl)-1H-pyrazol-4-yl]-9H-purin-8-yl}methanone] |
| 86 | Cn1cc(-c2nc(N3CCOCC3)c3nc(C(=O)N4CCNCC4)[nH]c3n2)cn1 [compound 20, [2-(1-Methyl-1H-pyrazol-4-yl)-6-(morpholin-4-yl)-9H-purin-8-yl](piperazin-1-yl)methanone] |
| 313 | CCn1c(C(=O)N2CCC(N(C)C)CC2)nc2c(N3CCOCC3)nc(-c3cnn(C)c3)nc21 [compound 21, [4-(Dimethylamino)piperidin-1-yl][9-ethyl-2-(1-methyl-1H-pyrazol-4-yl)-6-(morpholin-4-yl)-9H-purin-8-yl]methanone] |
| 368 | CCn1c(C(=O)N2CCC(N3CCOCC3)CC2)nc2c(N3CCOCC3)nc(-c3cnn(C)c3)nc21 [compound 22, [9-Ethyl-2-(1-methyl-1-pyrazol-4-yl)-6-(morpholin-4-yl)-9H-purin-8-yl][4-(morpholin-4-yl)piperidin-1-yl]methanone] |
| 198 | Cn1cc(-c2nc(N3CCOCC3)c3nc(C(=O)N4CCC(N5CCOCC5)CC4)n(C)c3n2)cn1 [compound 23, [9-Methyl-2-(1-methyl-1H-pyrazol-4-yl)-6-(morpholin-4-yl)-9H-purin-8-yl][4-(morpholin-4-yl)piperidin-1-yl]methanone] |
| 99 | Cn1cc(-c2nc(N3CCOCC3)c3nc(C(=O)N4CCN(C(=O)c5ncccn5)CC4)[nH]c3n2)cn1 [compound 25, [2-(1-Methyl-1H-pyrazol-4-yl)-6-(morpholin-4-yl)-9H-purin-8-yl][4-(pyrimidin-2-ylcarbonyl)piperazin-1-yl]methanone] |
| 101 | CC(=O)NC1CCN(C(=O)c2nc3c(N4CCOCC4)nc(-c4cnn(C)c4)nc3[nH]2)CC1 [compound 26, N-(1-{[2-(1-methyl-1H-pyrazol-4-yl)-6-(morpholin-4-yl)-9H-purin-8-yl]carbonyl}piperidin-4-yl)acetamide] |
| 128 | Cn1cc(-c2nc(N3CCOCC3)c3nc(C(=O)N4CCN(c5ncccn5)CC4)[nH]c3n2)cn1 [compound 27, [2-(1-Methyl-1H-pyrazol-4-yl)-6-(morpholin-4-yl)-9H-purin-8-yl][4-(pyrimidin-2-yl)piperazin-1-yl]methanone] |
| 69 | Cn1cc(-c2nc(N3CCOCC3)c3nc(C(=O)N4CCC(NS(C)(=O)=O)CC4)[nH]c3n2)cn1 [compound 28, N-(1-{[2-(1-methyl-1H-pyrazol-4-yl)-6-(morpholin-4-yl)-9H-purin-8-yl]carbonyl}piperidin-4-yl)methanesulfonamide] |
| 140 | Cn1cc(-c2nc(N3CCOCC3)c3nc(C(=O)N4CCN(C(=O)Cc5cnccn5)CC4)[nH]c3n2)cn1 [compound 29, 1-(4-{[2-(1-Methyl-1H-pyrazol-4-yl)-6-(morpholin-4-yl)-9H-purin-8-yl]carbonyl}piperazin-1-yl)-2-(pyrazin-2-yl)ethanone] |
| 627 | Cn1cc(-c2nc(N3CCOCC3)c3nc(C(=O)N4CCn5ccnc5C4)[nH]c3n2)cn1 [compound 30, 5,6-Dihydroimidazo[1,2-a]pyrazin-7(8H)-yl[2-(1-methyl-1H-pyrazol-4-yl)-6-(morpholin-4-yl)-9H-purin-8-yl]methanone] |
